The source of these data is patent publication US20090203050A1 (The Regents of the University of California, priority 2005, published 2009).

Entries after “also recorded” stand apart in the source; their conditions may differ.

One series has as its system NF-κB and AP-1 DBA. Put plainly: EMSA in RR clones. In kind it is cell-based, human. On the procedure: FIG. 8. […] A. Total cell lysates (40 μg) were subjected to western blot analysis using phospho-specific Abs for various components of the NF-κB and ERK1/2 pathways. B. The kinase activity of the IKK complex using IκB-α peptide (aa 1-50 including S^32/36) and ERK1/2 using MAPK kinase substrates 4 (aa 172-192) using immune-complex kinase assay. C. […] 10 μg of nuclear lysates were subjected to EMSA (n=2) (19, 20).
The DBAs were evaluated using biotin-labeled oligonucleotide AP-1 (5′-[…]-3′) (Lee, W et al., Cell, 49:741-52 (1987)) and NF-κB (5′-[…] […]-3′) probes (Harada, H. et al., Mol. Cell Biol., 14:1500-9 (1994)) using EMSA kit (Panomics, Inc., Redwood City, Calif.) according to manufacturer's instructions. 10 μg of nuclear extracts were subjected to […] 5% PAGE and developed (Jazirehi, A. et al., Cancer Research, 64:7117-26 (2004); Jazirehi, A. et al., Cancer Research, 65:264-76 (2005)).
Next, alterations in the DBA of NF-κB and AP-1 in the clones were examined.
(In general: Mobility shift assays separate free from complexed probe on a gel.)

Series [1] deals with p38MAPK/NF-κB/YY1/STAT3 signaling pathways, Bcl-2. Put plainly: Molecular analysis of signaling in 2F7RR1. In kind it is cell-based. The note with it: 2F7-RR1. The text has this: (§1) Accordingly, we examined whether inhibition of Bcl-2 in 2F7RR1 can reverse chemoresistance. Since Bcl-2 is under the transcriptional regulation of NFκB, we examined the effect of the NF-κB inhibitors Bortezomib and DHMEQ (Kikuchi, et al., Cancer Research, 63:107 (2003)).
(§2) The mechanism by which B-NHL patients resist treatment is not known. […] We examined the effect of various chemical inhibitors of this signaling pathway on chemosensitization.

Series [2] relates to 2F7, Ramos and Daudi wild type and RR clones. Put plainly: TRAIL-mediated apoptosis in B-NHL cell lines and RR clones (DNA fragmentation). Format: cell-based, human. The note with it: inhibitor pretreatment 2 h, then TRAIL 18 h; rituximab-sensitive and -resistant cells. An excerpt:
Patients with B-NHL respond initially to conventional chemotherapy and/or to immunotherapy with rituximab (alone or in combination with chemotherapy). However, patients develop resistance to these modalities and novel approaches are needed. TRAIL is a cytotoxic molecule that exerts selective anti-tumor cytotoxic activity with minimal toxicity to normal tissues. Further, TRAIL or agonist monoclonal antibody (mAb) to TRAIL receptors, DR4 and DR5, are currently being tested clinically. The present study investigated the sensitivity of B-NHL cell lines to TRAIL-mediated apoptosis using the AIDS-related NHL (ARL) B-cell line, 2F7, and the B-NHL cell lines, Ramos and Daudi. Also, to recapitulate various aspects of acquired rituximab-resistance, we have generated rituximab-resistant (RR) clones from the parental wild type (wt) cells. […] We then examined means to reverse […] resistance. We and others have reported that inhibition of NFκB activity can sensitize TRAIL-resistant tumor cells to TRAIL-induced apoptosis. […] Both the rituximab-sensitive and rituximab-resistant tumor cells were sensitized by these inhibitors, though higher concentrations were required for sensitization of the RR clones. […] Based on the findings, patients with resistant B-NHL can be treated with combination of TRAIL/anti-DR4 or DR5 mAb and NFκB inhibitors. Alternatively, these patients can be treated with agents that up-regulate TRAIL expression on host effectors (e.g., T cells, NK cells) in combination with NFκB inhibitors.

A further series concerns RR clones. Put plainly: DNA fragmentation apoptosis assay, RR clones (pooled statements). In kind it is cell-based, human. The note with it: drugs e.g. Paclitaxel, Vincristine, VP-16, CDDP, Adriamycin. How it is done:
Thus, we examined if such sensitizing agents can reverse the resistance in the RR clones.
(§3) Percentage of apoptotic cells was determined by evaluation of propidium iodide (PI) stained preparations of cells using an EpicXL flow-cytometer. Cellular debris was excluded from analysis by raising the forward scatter threshold, and DNA content of the intact nuclei was recorded on a logarithmic scale (Nicoletti, I. et al., J. Immunol. Methods, 139:271-9 (1991)). Percent apoptosis is represented as percentage of hypodiploid cells accumulated at sub-G0 phase of cell cycle.
(§4) Cells were left either untreated or pre-treated with DHMEQ (36), bortezomib (Goy, A. et al., Clin. Lymphoma, 4:230-7 (2004)) and PD098059 (Alessi, D. et al., J. Biol. Chem., 270:27489-94 (1995)). Escalating concentrations of various drugs were then added and the percentage of apoptosis was measured.

The next series relates to Daudi-RR1. The series is described as follows: DNA fragmentation (PI) apoptosis assay, Daudi-RR1. On the procedure: as §3, §4
For the next series, the system named is 2F7RR1 clone. Put plainly: Chemotherapeutic drug-induced apoptosis in 2F7RR1. Format: cell-based.
Excerpt: as §1, §2

For the next series, the system named is Ramos-RR1. Put plainly: DNA fragmentation (PI) apoptosis assay, Ramos-RR1. On the procedure:
as §3, §4

Another series has as its system Ramos and Daudi. The note with it: ERK1/2 pathway inhibitors; cited from earlier work.
For the next series, the system named is Ramos cells. Put plainly: PI flow cytometry apoptosis, chemosensitization of Ramos. The note with it: pretreatment then CDDP 15 μg/ml 24 h. Format: cell-based, human. Background: Flow cytometry measures light scatter and fluorescence of single cells or particles in a stream.
For series [3], the system named is PI3K/Akt signaling pathway in Ramos. Put plainly: Western blot of phosphorylated and unphosphorylated Akt / NF-κB pathway proteins in Ramos. In kind it is cell-based, human. The note with it: rituximab 138 nM or (Fab′)2, 20 h. (In general: Immunoblotting shows a protein as a band on a membrane.)
Experimental: After stimulation, cells (2×10^6 cells) were collected and resuspended with lysis buffer (20 mM Tris-HCl (pH 8.0), 2 mM EDTA, 3% NP-40, 100 mM NaCt, 50 mM NaF, 1 uM PMSF, 1 uM VO4, 5 ug/ml aprotinin, 5 ug/ml leupeptin). After 30 min of incubation on ice, samples were centrifuged at 10,000×g, for 10 min at 4° C. to remove cellular debris. […] The membranes were blocked for 30 min with 5% non-fat dry milk diluted in 0.05% Tween-20 Tris-buffered saline at room temperature and incubated overnight with the primary antibodies. After incubation with the primary antibody against Akt (1:300), Bad, PDK1, (1:500), phospho-specific antibodies against phospho-Akt (Ser 473, Thr 308) (1:300), phospho-PDK1 and phospho-Bad (Serl 36) (both 1:300) for overnight, the membranes were washed and incubated with HRP-coupled secondary antibodies (Cell Signaling, MA, USA). Immunoreactive bands were detected using an enhanced chemiluminiscence system (Amersham Pharmacia Biotech, UK).

Experimental for Ramos cells: The cells were then washed and fresh medium was added and seeded into 12 well plates (Costar, Cambridge, Mass.). Indicated concentrations of drugs (CDDP, ADR) were then added, and the cells were incubated for another 24 h for maximal cytotoxicity. At the end of the incubation period, the cells were harvested and subjected to propidium iodide (PI) (Molecular Probes, Leiden, Netherlands) staining according to the specifications of the PI staining kit (Roche Diagnostics Corporation, Indianapolis, Ind.) and evaluated by flow cytometric analysis. LY294002 was dissolved in DMSO (Sigma-Aldrich) and added up to 50 uM.
DNA fragmentation was detected by flow cytometric analysis after propidium iodide staining (Alas, S. et al., Cancer Res., 61:5137-44 (2001)). Cells with fragmented DNA were considered as apoptotic. […] Fluorescence was measured on a FACScan flow cytometer (BD Immunocytometry Systems) within 1 h. […] Cellular debris were excluded from analysis by raising the forward scatter threshold, and the DNA content of the intact nuclei was recorded on a logarithmic scale. […]
Ramos B-NHL cells were cultured in 1 ml of Opti-MEM medium without antibiotics and FBS. […] To determine Akt siRNA-induced sensitization to CDDP-induced apoptosis, following transfection the cells were treated with CDDP for 24 h, then fixed and permeabilized for PI staining, and analyzed by flow cytometry as described above.

Regarding `O=C(NC1=CC(=O)[C@H]2O[C@H]2[C@H]1O)c1ccccc1O` [DHMEQ, dehydroxymethylepoxyquinomicin], the “NF-κB and AP-1 DBA (EMSA)” value in the series on NF-κB and AP-1 DBA is given as “preferentially reduced”. Moreover, the “effect on NF-kB, YY1 and Bcl-2 expression” value in series [1] is “inhibition of NF-kB, YY1 and downregulated Bcl-2 expression”. Also, in series [2], the “sensitization to TRAIL-induced apoptosis” value is “significant augmentation of apoptosis and synergy was achieved”. The “sensitization of RR clones to various chemotherapeutic drugs” value in the series on RR clones is given as “sensitized”. Besides, the figures for the “enhanced cytotoxicity of drugs by inhibitor” value in the series with Daudi-RR1 and in the series with Ramos-RR1 were 1.4-3.3 folds and 2.3-5.1 folds, respectively. Besides, the “apoptosis, DHMEQ alone” value with Daudi-RR1 (Daudi-RR1, DHMEQ 20 μg/ml) is 4.9±1.6%; in the series with Ramos-RR1 (Ramos-RR1, DHMEQ 20 μg/ml), 10.1±2.1%. Moreover, the “chemosensitization to drug-induced apoptosis (taxol, vincristine, ADR, CDDP, VP16)” value in the series with 2F7RR1 clone was “reversal of resistance; also recorded: significantly sensitized”.
As for `COc1cccc(-c2cc(=O)c3ccccc3o2)c1N` [PD098059, [2-(2′-amino-3′-methoxyphenyl)-oxanaphthalen-4-one]], the “NF-κB and AP-1 DBA (EMSA)” value with NF-κB and AP-1 DBA is on record as “preferentially reduced”. In addition, the “sensitization of RR clones to various chemotherapeutic drugs” value in the series with RR clones is “sensitized”. Also, the “enhanced cytotoxicity of drugs by inhibitor” value in the series on Daudi-RR1 is 1.5-2.7 folds; with Ramos-RR1 it was 1.8-3.1 folds. In addition, in the series with Ramos and Daudi, the “sensitization to drug-induced apoptosis” value is given as “also sensitize the cells”.
In the case of “Rituximab (Fab′)2: Fc-devoid Rituximab (Fab′)2”, the “sensitization to CDDP-induced apoptosis” value in the series with Ramos cells is “sensitize the cells significantly”. In series [3], the “effect on p-Akt (western)” value is given as “also inhibited p-Akt like rituximab”.
